Test results: paper PMC9568670, “A dominant negative mitofusin causes mitochondrial perinuclear clusters because of aberrant tethering” (Life Science Alliance, 2022)
Numbering of substitutions follows the chain as printed. Where a name gives a salt, the structure may show the parent alone.

Tests used:
Format in all cases: biochemical
[1] = target: T1, Mfn1^WT-FLAG (full-length) (Mus musculus, UniProt Q811U4); assay: blue native PAGE of isolated mitochondria, nucleotide-dependent oligomerization; details: 2 mM GMP-PNP, 37 C, 30 min; non-hydrolyzable GTP analog; indirect read-out by oligomer shift
T1 construct: full-length Mfn1 with FLAG tag, TET-induced in Flp-In TREx HEK293 cells; isolated mitochondria; ~200 kD species consistent with cis dimer
T1 sequence (Q811U4 1-741): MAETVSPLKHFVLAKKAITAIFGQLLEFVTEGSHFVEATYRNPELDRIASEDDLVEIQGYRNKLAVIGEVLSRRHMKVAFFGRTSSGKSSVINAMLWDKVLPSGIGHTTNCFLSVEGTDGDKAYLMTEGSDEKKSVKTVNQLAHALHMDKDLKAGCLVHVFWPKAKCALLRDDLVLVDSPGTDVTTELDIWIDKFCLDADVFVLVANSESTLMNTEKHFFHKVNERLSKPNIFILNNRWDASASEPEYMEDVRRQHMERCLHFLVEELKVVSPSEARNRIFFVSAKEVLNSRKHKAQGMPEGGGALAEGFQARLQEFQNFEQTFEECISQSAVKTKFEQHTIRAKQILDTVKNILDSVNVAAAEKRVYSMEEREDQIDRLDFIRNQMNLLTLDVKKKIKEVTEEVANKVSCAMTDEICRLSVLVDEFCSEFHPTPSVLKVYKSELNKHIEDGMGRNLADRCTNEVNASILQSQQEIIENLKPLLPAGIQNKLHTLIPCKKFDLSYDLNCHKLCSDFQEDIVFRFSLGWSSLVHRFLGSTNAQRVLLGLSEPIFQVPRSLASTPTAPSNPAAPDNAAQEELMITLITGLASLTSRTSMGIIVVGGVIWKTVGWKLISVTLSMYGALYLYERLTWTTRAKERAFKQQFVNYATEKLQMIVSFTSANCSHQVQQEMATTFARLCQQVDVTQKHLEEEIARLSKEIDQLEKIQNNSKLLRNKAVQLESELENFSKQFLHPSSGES

[2] = target: T2, Mfn1IM (mini-mitofusin Mfn1) (Homo sapiens, UniProt Q8IWA4, S329P/DEL366-695); assay: malachite green phosphate release, allosteric sigmoidal fit; details: 2.5 uM protein; pH 7.4, 50 mM KCl, 5 mM MgCl2, 1 mM DTT, 37 C, 15 min
T2 construct: pET28, E. coli Rosetta(DE3); N-terminal His6 cut off with PreScission; ~50 kD; monomer with GDP, dimer with GDP-BeF3-
T2 sequence (Q8IWA4 1-365 S329P): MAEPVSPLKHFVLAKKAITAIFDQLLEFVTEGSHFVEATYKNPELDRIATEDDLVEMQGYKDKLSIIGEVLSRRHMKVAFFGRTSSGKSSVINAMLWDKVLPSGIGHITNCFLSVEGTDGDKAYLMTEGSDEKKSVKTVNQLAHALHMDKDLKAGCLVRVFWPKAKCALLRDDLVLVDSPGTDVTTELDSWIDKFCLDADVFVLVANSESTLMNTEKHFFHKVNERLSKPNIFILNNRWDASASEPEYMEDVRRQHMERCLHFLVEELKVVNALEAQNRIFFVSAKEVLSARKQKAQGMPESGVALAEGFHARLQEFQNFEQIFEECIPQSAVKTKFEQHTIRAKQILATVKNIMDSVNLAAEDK
T2 sequence (Q8IWA4 696-741): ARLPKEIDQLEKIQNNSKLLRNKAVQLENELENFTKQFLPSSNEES

[3] = target: T3, Mfn1IM (mini-mitofusin Mfn1) (Homo sapiens, UniProt Q8IWA4, DEL366-695); assay: as above; details: 2.5 uM protein; pH 7.4, 50 mM KCl, 5 mM MgCl2, 1 mM DTT, 37 C, 15 min
T3 construct: pET28, E. coli Rosetta(DE3); N-terminal His6 cut off with PreScission; ~50 kD; monomer with GDP, dimer with GDP-BeF3-
T3 sequence (Q8IWA4 1-365): T2 sequence (Q8IWA4 1-365 S329P) with P329S
T3 sequence (Q8IWA4 696-741): T2 sequence (Q8IWA4 696-741)

SMILES	blue native PAGE of isolated mitochondria, nucleotide-dependent oligomerization [1]	Khalf [2]	Khalf [3]
Nc1nc2c(ncn2[C@@H]2O[C@H](COP(=O)(O)OP(=O)(O)NP(=O)(O)O)[C@@H](O)[C@H]2O)c(=O)[nH]1 [GMP-PNP, guanosine 5′-β,γ-imidotriphosphate trisodium salt hydrate]	GMP-PNP, which shifts mitofusin from the dimer into two larger species		
Nc1nc2c(ncn2[C@@H]2O[C@H](COP(=O)(O)OP(=O)(O)OP(=O)(O)O)[C@@H](O)[C@H]2O)c(=O)[nH]1 [GTP]		kinetics of GTP hydrolysis was similar between Mfn1IM^WT and Mfn1IM^S329P	kinetics of GTP hydrolysis was similar between Mfn1IM^WT and Mfn1IM^S329P
